Assay results published in paper PMC6057649, “Development of NanoLuc-PEST expressing Leishmania mexicana as a new drug discovery tool for axenic- and intramacrophage-based assays” (PLoS Neglected Tropical Diseases, 2018).
pEC50: −log10 of the molar value. Several values for one entry are separate records, joined by “and”; a condition that tells them apart may be missing. Equal entries are not always repeated. Where two headings read alike, the source gives them in different places. Peptide text beside a SMILES is read from it. * marks the point of attachment. Cbz = O=C(OCc1ccccc1)*

Key:
HepG2 = details: ref MMV Pathogen Box website, cited from earlier work; for CC50: read-out: HepG2 CC50
THP-1 cell line [1] = tested on: THP-1 cell line
[2] = tested on: NanoLuc-PEST expressing L. mexicana axenic amastigotes; test: microbe, parasite or virus in culture; type: cell-based
[3] = tested on: L. mexicana NanoLuc-PEST intramacrophage amastigotes; test: Bioluminescence-based intramacrophage assay in THP-1 infection model; type: cell-based; details: for pEC50: read-out: EC50 against amastigotes, Intramacrophage; for EC90: read-out: EC90 against amastigotes, Intramacrophage
[4] = tested on: NanoLuc-PEST-expressing L. mexicana promastigotes and axenic amastigotes; test: Cycloheximide and proteasome (MG-132) assays on luciferase signal; type: cell-based; details: 5 μM, 6 hours
Method: Detection of NanoLuc and NanoLuc-PEST enzymes was performed using the lytic Nano-Glo Assay (Promega), according to the manufacturer’s instructions. Detection of PRE9 was performed using either the Firefly Luciferase Glow Assay (Pierce), or the Bright-Glow Assay (Promega). Bioluminescence was measured using the Promega GloMax Multi Detection System. All data was normalised by subtracting bioluminescence values for the untransformed, parental line, and all assays done in triplicate.
Cycloheximide assays were performed over 8 hours. Cells were seeded to a cell density of 5 x10^5 cells/well (100 μL/well). Cycloheximide (Sigma) was added to each well to a final concentration of 100 μM and incubated with cells for a range of time points between 0 and 8 hours. Bioluminescence was measured as described above, and the half-life of each luciferase was calculated by one phase decay non-linear regression (GraphPad Prism 6.0). Proteosome assays were performed using the method above with the addition of 5 μM MG-132 (Sigma) for 6 hours. Statistical significance was determined using a paired, two-tailed T-test (GraphPad Prism 6.0).

[5] = tested on: NanoLuc-PEST expressing L. mexicana axenic amastigotes; test: Fluorescence-based (AlamarBlue) viability assay, NanoLuc-PEST axenic amastigotes; details: Leishmania mexicana, 72 h
[6] = tested on: L. mexicana axenic amastigotes; design: method as in PMID 9087496; details: L. mexicana axenic amastigotes ref 47; read-out: Previous EC50, axenic amastigotes; cited from earlier work
MRC5 = tested on: MRC5; design: method as in MMV Pathogen Box website; details: ref MMV Pathogen Box website; cited from earlier work
THP-1 cell line [7] = test: Macrophage toxicity assay (PrestoBlue); details: read-out: THP1 EC50, PMA-differentiated THP-1 macrophages, 72 hours
[8] = tested on: L. donovani intramacrophage amastigotes; details: cited from earlier work
[9] = tested on: L. donovani axenic amastigotes; details: cited from earlier work
[10] = tested on: wild-type L. mexicana axenic amastigotes; test: Fluorescence-based (AlamarBlue) viability assay, parental axenic amastigotes; details: Leishmania mexicana, 72 h
[11] = tested on: Leishmania spp. intramacrophage amastigotes; details: value in brackets ref 55, read-out: Previous EC50, intramacrophage amastigotes; cited from earlier work
[12] = tested on: L. mexicana intramacrophage amastigotes; design: method as in PMID 14695832; details: values in brackets ref 52, read-out: Previous EC50, intramacrophage amastigotes; cited from earlier work
[13] = 2 µM compound, 72 hours, relative to DMSO only control, n = 4
[14] = 10 µM compound, 72 hours, relative to DMSO only control, n = 4
[15] = hit compounds from the axenic amastigote screen, S3 Table; read-out: EC50, Axenic Amastigotes
[16] = read-out: EC50 against amastigotes, Axenic
[17] = read-out: EC90 against amastigotes, Axenic
[18] = Leishmania mexicana, 72 h; read-out: EC50
[19] = Leishmania mexicana; 2 µM compound, 72 hours, relative to DMSO only control, n = 4; read-out: Relative Bioluminescence (%)
[20] = Leishmania mexicana; 10 µM compound, 72 hours, relative to DMSO only control, n = 4; read-out: Relative Bioluminescence (%)
[21] = Leishmania mexicana; read-out: EC50 against amastigotes, Axenic
[22] = Leishmania mexicana; read-out: EC90 against amastigotes, Axenic
[23] = THP-1 infection model, bioluminescence
[24] = Leishmania mexicana, THP-1 infection model, bioluminescence

Structure (SMILES) | Relative Bioluminescence (%) [2, 13] | Relative Bioluminescence (%) [2, 14] | pEC50 [2, 15] | pEC50 [2, 16] | EC90 [2, 17] | viability at 2 µM [2, 19] | viability at 10 µM [2, 20] | EC90 [2, 22] | pEC50 [3, 23] | EC90 [3, 23] | also measured
CCc1c(C)nc(-n2nc(C)cc2NC(=O)c2ccccc2SC)[nH]c1=O [MMV676477] | -0.98% | -0.92% | 7.15 | 7.16 | 168 nM | – | – | – | – | – | CC50 (HepG2): 1300 nM; pEC50 (THP-1 cell line [1]): < 4.30; pEC50 [3]: 5.32; EC90 [3]: 6110 nM
CC(C)C[C@@H](C=O)NC(=O)[C@H](CC(C)C)NC(=O)[C@H](CC(C)C)NC(=O)OCc1ccccc1 [MG-132] (Cbz-Leu-Leu-Leu-aldehyde) | – | – | – | – | – | – | – | – | – | – | bioluminescence relative to the DMSO control [4]: statistically significant increase
C[C@@H]1[C@H](O)[C@@H](C)/C=C/C=C/C=C/C=C/C=C/C=C/C=C/[C@H](O[C@@H]2O[C@H](C)[C@@H](O)[C@H](N)[C@@H]2O)C[C@@H]2O[C@](O)(C[C@@H](O)C[C@@H](O)[C@H](O)CC[C@@H](O)C[C@@H](O)CC(=O)O[C@H]1C)C[C@H](O)[C@H]2C(=O)O [Amphotericin B, reference compound] | – | – | – | – | – | 58.3% | 48.4% | 279 nM | – | – | pEC50 [5]: 6.57; pEC50 [2, 18]: 6.70; pEC50 ([2]; Leishmania mexicana; axenic amastigotes; span over parental and transgenic line, both bioluminescence- and fluorescence-based assays; read-out: EC50 values from the parental and transgenic line): 6.57 to 6.70; pEC50 [2, 21]: 6.70; decrease of bioluminescent signal [3]: ≥ 99%; pEC50 ([3]; Leishmania mexicana, THP-1): 6.98; EC90 ([3]; Leishmania mexicana, THP-1): 185 nM; pEC50 [6]: 6.52
O=C(Nc1ccc2c(c1)B(O)OC2)c1ccccc1C(F)(F)F [MMV652003] | -1.53% | -1.54% | 7.15 | 7.11 | 104 nM | – | – | – | 5.44 | 10700 nM | CC50 (MRC5): > 32000 nM; HepG2 CC20 (HepG2): 400 nM
CCN(CC)S(=O)(=O)c1ccc(C(=O)Nc2cc(C)nn2-c2nc(C)c(C)c(=O)[nH]2)cc1 [MMV595321] | -4.54% | -3.10% | 6.82 | 6.82 | 357 nM | – | – | – | 5.28 | 11200 nM | pEC50 (THP-1 cell line [7]): < 4.30; pEC50 ([8]; value in brackets ref 49, 53, read-out: Previous EC50, intramacrophage amastigotes): 5.50; pEC50 ([9]; value in brackets ref 49, 53, read-out: Previous EC50, axenic amastigotes): 6.30
CCCCCCCCCCCCCCCCOP(=O)([O-])OCC[N+](C)(C)C [Miltefosine, reference compound] | – | – | – | – | – | 43% | 11.5% | 19800 nM | – | – | pEC50 [5]: 5.70; pEC50 [2, 18]: 5.66; pEC50 ([2]; Leishmania mexicana, read-out: EC50 against amastigotes, Axenic): 5.70; pEC50 ([3]; Leishmania mexicana, THP-1): 4.96; EC90 ([3]; Leishmania mexicana, THP-1): 37300 nM; pEC50 [10]: 5.95; pEC50 [11]: 4.80
CC(C)(C)[C@H]1CC[C@H](CC2=C(O)C(=O)c3ccccc3C2=O)CC1 [MMV689480, Buparvaquone, reference compound] | – | – | – | – | – | -0.24% | 0.15% | 11 nM | – | – | pEC50 ([2]; Leishmania mexicana; hit compounds from the axenic amastigote screen, S3 Table; read-out: EC50, Axenic Amastigotes): 8.66; pEC50 [2, 21]: 8.70; pEC50 [3, 24]: 6.40; EC90 [3, 24]: 1260 nM; pEC50 [12]: 5.90 and 5.84
COc1ccc(Oc2ccc([C@@H](C)N(C)c3ncc4c(N)nc(N)nc4n3)cc2)cc1 [MMV690102] | -5.29% | -1.34% | – | 7.22 | 123 nM | – | – | – | 6.97 | 160 nM | CC50 (MRC5): 5400 nM; pEC50 ([8]; value in brackets ref 49–51, read-out: Previous EC50, intramacrophage amastigotes): 7.00; pEC50 ([9]; value in brackets ref 49–51, read-out: Previous EC50, axenic amastigotes): 7.40
Cc1ccc(NC(=O)c2nc[nH]c2C(=O)Nc2nc3ccccc3[nH]2)c(C)c1 [MMV011903] | -0.43% | -1.14% | 6.74 | 6.72 | 320 nM | – | – | – | 5.70 | 2290 nM | CC50 (HepG2): > 10000 nM; HepG2 CC20 (HepG2): 8400 nM; pEC50 (THP-1 cell line [7]): < 4.30
